The values below come from EPA's ToxValDB 9.5 (doi:10.2903/j.efsa.2016.4575).

The structures appear in SMILES notation. Converted amounts (≈) assume the structure as drawn.

One series deals with Typhlodromus pyri. The series can be described thus: LR50; higher = less toxic. To be noted: not reported; mortality.
A further series deals with Colinus virginianus. Conditions: chronic.
Another series relates to Coturnix japonica. Conditions: acute; oral; M; mortality.
In the next series the test system is Apis mellifera. Conditions: acute, mortality.
A further series concerns Folsomia candida. Conditions: chronic/long-term; reproduction.
For another series, the system named is Bird. Conditions: acute; oral; unspecified; mortality.
Another series deals with Bibionidae. To be noted: chronic/long-term; duration: 23 days.
A further series has as its system Canidae. To be noted: Dog Other; for NOAEL: oral, hematological.
The subject of a further series is Tagia sp. Conditions: chronic/long-term; mortality.
In a further series the test system is Daphnia magna. To be noted: chronic/long-term; duration: 21 days.

The NOAEL is the highest tested level that showed no adverse finding. For orientation: LC50 means the concentration lethal to half of the exposed cells or organisms. As to `COc1cc(OC)nc(NC(=O)NS(=O)(=O)c2ncccc2C(F)(F)F)n1` [Flazasulfuron], the LR50 in the series on Typhlodromus pyri was greater than 50 g/ha. The NOAEL turned out to be 95.9 mg/kg-day in the series on Colinus virginianus; 2 mg/kg-day with Canidae (chronic, duration: 1 years); 2 mg/kg-day in the series with Canidae (subchronic, duration: 90 days); 1.3 mg/kg-day with Rattus norvegicus (chronic, duration: 2 years, other); 11 mg/kg-day in the series with Rattus norvegicus (reproduction developmental); 100 mg/kg-day in the series on Rattus norvegicus (reproduction developmental, body weight). The LD50 was 995 mg/kg-day in the series with Coturnix japonica; greater than 25.9 µg/piece with Apis mellifera (dermal); greater than 46.3 µg/piece with Apis mellifera (oral, unspecified); 2120 mg/kg-day in the series with Bird; 1320 mg/kg-day in the series with Rattus norvegicus (acute, oral, mortality). Moreover, the LC50 in the series on Oncorhynchus mykiss (acute, duration: 96 hours, mortality) was 22 µg/mL (≈ 54 µM). Moreover, the NOEC in the series with Oncorhynchus mykiss (chronic/long-term, duration: 21 days) was determined as 5 mg/L; in the series with Folsomia candida it was 125 mg/kg; in the series with Bibionidae, 0.1 mg/L; in the series on Tagia sp., 8 mg/kg; in the series on Daphnia magna, 6.2 mg/L. The same molecule came in with an LEC with Canidae (repeat dose other) of 2 mg/kg-day.
